Biological target: T1, PI3Kα H1047R (T47D cells) (Homo sapiens, UniProt P42336, H1047R)
T1 construct: endogenous in cells; host or cells: T47D cells
Assay: PI3Kα cellular assay: pAKT HTRF in T47D cells after EGF stimulation
Format: cell-based
Details: for IC50: T47D cells (PI3Kα H1047R), pAKT S473 HTRF
Experimental: SKBR3 or T47D cells are seeded in DMEM containing 10% FBS at 25k cells/well into 96-well cell culture format. Cells are incubated overnight at 37° C. in a 5% CO2 incubator and the following day cell media is aspirated, adherent cells are washed 1× with room temperature PBS prior to serum-free media application. Cells are returned to 37° C. 5% CO2 incubator and incubated a further 16 hrs. Compounds are added to serum starved adherent cells with a top dose of 10,000 nM and 3× multiple dose reductions for a minimum dose of 0.5 nM diluted in DMSO. Cell/compound incubation continues for 1 hr in a 37° C., 5% CO2 incubator prior to 10 minute PIK3CA stimulation with 20 ng/ml EGF. Cells treated with 0.1% DMSO and 20 ng/mL EGF are employed as negative control, cells treated with 10 uM Alpelisib and 20 ng/mL EGF are employed as a positive control. After 10 mins, plates are removed from incubator and cells are lysed with buffer and shaking 45 minutes. […] 384 well plate is left overnight at room temperature before reading HTRF on an Envision plate reader.
ND denotes value not determined with that assay for the specified compound; • for T47D (H1047R) selectivity over SKBR3 (WT): A denotes >20-fold; B denotes 20-fold≥value>5-fold; C denotes ≤5-fold. ND denotes value not determined with that assay for the specified compound; and • for T47D pAKT lipophilic efficiency (LiPE): A denotes >4; B denotes 4≥value>2; C denotes ≤2. ND denotes value not determined with that assay for the specified compound.

[1] = selectivity of T47D (H1047R) over SKBR3 (WT) pAKT IC50
[2] = selectivity T47D (H1047R) over SKBR3 (WT), pAKT HTRF
[3] = 1 hr compound, 20 ng/ml EGF 10 min

T1 sequence (P42336 whole entry H1047R): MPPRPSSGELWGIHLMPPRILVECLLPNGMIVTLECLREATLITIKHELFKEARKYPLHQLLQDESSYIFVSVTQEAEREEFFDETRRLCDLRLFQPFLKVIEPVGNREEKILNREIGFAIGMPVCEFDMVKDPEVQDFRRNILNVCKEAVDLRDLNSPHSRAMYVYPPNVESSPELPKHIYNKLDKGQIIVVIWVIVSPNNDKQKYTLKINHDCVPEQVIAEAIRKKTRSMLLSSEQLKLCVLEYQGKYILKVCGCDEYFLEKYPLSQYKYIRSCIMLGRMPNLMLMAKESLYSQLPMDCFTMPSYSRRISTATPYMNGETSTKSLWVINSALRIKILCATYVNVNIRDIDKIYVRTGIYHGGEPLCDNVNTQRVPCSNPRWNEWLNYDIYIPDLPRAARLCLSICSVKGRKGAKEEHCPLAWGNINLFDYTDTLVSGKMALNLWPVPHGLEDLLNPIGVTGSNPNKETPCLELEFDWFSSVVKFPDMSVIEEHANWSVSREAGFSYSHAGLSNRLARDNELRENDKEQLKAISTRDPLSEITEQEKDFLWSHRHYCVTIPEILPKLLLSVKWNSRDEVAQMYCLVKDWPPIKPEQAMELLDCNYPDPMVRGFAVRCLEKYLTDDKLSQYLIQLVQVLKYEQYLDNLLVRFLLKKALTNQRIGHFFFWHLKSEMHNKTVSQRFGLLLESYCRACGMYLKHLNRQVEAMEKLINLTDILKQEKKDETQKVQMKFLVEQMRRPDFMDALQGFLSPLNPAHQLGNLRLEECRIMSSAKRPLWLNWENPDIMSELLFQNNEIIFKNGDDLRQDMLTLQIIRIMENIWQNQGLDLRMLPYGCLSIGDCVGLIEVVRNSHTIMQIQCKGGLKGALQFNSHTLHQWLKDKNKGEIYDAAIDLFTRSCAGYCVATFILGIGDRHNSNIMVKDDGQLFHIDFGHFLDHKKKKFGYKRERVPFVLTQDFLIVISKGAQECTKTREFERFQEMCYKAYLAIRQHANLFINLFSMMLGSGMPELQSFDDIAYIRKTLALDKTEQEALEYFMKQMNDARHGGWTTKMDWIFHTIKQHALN
T1 sequence (P27986 whole entry partner): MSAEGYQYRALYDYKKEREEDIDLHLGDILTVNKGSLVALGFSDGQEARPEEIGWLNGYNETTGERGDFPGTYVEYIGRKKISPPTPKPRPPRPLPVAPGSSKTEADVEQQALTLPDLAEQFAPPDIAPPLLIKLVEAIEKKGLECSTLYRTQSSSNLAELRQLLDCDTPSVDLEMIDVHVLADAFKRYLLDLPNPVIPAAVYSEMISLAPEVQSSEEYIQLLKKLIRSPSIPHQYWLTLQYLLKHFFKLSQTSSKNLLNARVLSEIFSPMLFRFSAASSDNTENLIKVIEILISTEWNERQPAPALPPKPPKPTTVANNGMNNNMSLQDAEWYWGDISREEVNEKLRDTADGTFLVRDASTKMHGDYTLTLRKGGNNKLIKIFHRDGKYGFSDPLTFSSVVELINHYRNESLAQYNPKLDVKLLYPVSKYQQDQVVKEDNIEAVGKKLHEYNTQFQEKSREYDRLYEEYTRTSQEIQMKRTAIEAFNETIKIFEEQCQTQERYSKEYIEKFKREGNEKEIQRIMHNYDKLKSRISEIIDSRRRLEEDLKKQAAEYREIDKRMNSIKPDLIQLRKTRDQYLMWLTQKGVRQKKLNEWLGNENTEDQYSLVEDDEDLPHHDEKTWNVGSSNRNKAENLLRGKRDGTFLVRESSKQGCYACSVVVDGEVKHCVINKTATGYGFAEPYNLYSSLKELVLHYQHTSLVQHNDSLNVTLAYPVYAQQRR

Row | IC50 (EGF stimulation) [nM] | T47D pAKT S473 HTRF IC50 (H1047R): T47D (H1047R) selectivity over SKBR3 (WT) [1] | T47D pAKT S473 HTRF IC50 (H1047R): T47D (H1047R) selectivity over SKBR3 (WT) [2] | IC50 [3] [nM] | Compound
1 | < 100 | A (A denotes >20-fold) | – | – | Cc1cc([C@@H](C)Nc2ccccc2C(=O)O)c2nc(-c3ccc4c(c3)c(C)nn4C3CC3)c(C)c(=O)n2c1 (single isomer, unassigned) [Compound 892]
2 | < 100 | A (A denotes >20-fold) | – | – | Cc1cc([C@@H](C)Nc2ccccc2C(=O)O)c2nc(-c3ccc4c(c3)c(C)cn4C)c(C)c(=O)n2c1 (single isomer, unassigned) [Compound 902]
3 | < 100 | A (A denotes >20-fold) | – | – | Cc1cc([C@@H](C)Nc2ccccc2C(=O)O)c2nc(-c3ccc(F)c(C#N)c3)c(C)c(=O)n2c1 (single isomer, unassigned) [Compound 947]
4 | < 100 | A (A denotes >20-fold) | – | – | Cc1cc([C@@H](C)Nc2ccccc2C(=O)O)c2nc(-c3cccnc3)c(C)c(=O)n2c1 (single isomer, unassigned) [Compound 949]
5 | < 100 | A (A denotes >20-fold) | – | – | Cc1cc([C@@H](C)Nc2ccccc2C(=O)O)c2nc(-c3ccnc(C4CC4)c3)c(C)c(=O)n2c1 (single isomer, unassigned) [Compound 953]
6 | < 100 | A (A denotes >20-fold) | – | – | Cc1cc([C@@H](C)Nc2ccccc2C(=O)O)c2nc(-c3ccc(Cl)cc3)c(C)c(=O)n2c1 (single isomer, unassigned) [Compound 963]
7 | < 100 | A (A denotes >20-fold) | – | – | Cc1cc([C@@H](C)Nc2ccccc2C(=O)O)c2nc(-c3cccc(C#N)c3)c(C)c(=O)n2c1 (single isomer, unassigned) [Compound 967]
8 | < 100 | A (A denotes >20-fold) | – | – | Cc1cc([C@@H](C)Nc2ccccc2C(=O)O)c2nc(-c3cccc(F)c3)c(C)c(=O)n2c1 (single isomer, unassigned) [Compound 969]
9 | < 100 | A (A denotes >20-fold) | – | – | Cc1cc([C@@H](C)Nc2ccccc2C(=O)O)c2nc(-c3cccc(C4CC4)c3)c(C)c(=O)n2c1 (single isomer, unassigned) [Compound 971]
10 | < 100 | A (A denotes >20-fold) | – | – | Cc1cc([C@@H](C)Nc2ccccc2C(=O)O)c2nc(-c3ccc(C4CC4)nc3)c(C)c(=O)n2c1 (single isomer, unassigned) [Compound 973]
11 | < 100 | A (A denotes >20-fold) | – | – | Cc1cc([C@@H](C)Nc2ccccc2C(=O)O)c2nc(-c3ccc(C#N)nc3)c(C)c(=O)n2c1 (single isomer, unassigned) [Compound 975]
12 | 500 to 2000 | B (B denotes 20-fold≥value>5-fold) | – | – | Cc1cc([C@H](C)Nc2ccccc2C(=O)O)c2nc(C3Cc4ccccc4C3)c(C3CC3)c(=O)n2c1 (single isomer, unassigned) [Compound 983]
13 | > 2000 | – | C (C denotes ≤5-fold) | – | Cc1cc([C@@H](C)Nc2ccccc2C(=O)O)c2nc(OC3CCOCC3)c(C)c(=O)n2c1 (single isomer, unassigned) [Compound 1370]
14 | < 100 | – | A (A denotes >20-fold) | – | Cc1cc([C@H](C)Nc2ccccc2C(=O)O)c2nc(OC3CCOCC3)c(C)c(=O)n2c1 (single isomer, unassigned) [Compound 1371]
15 | 100 to 500 | – | A (A denotes >20-fold) | – | Cc1cc([C@@H](C)Nc2cccc3onc(O)c23)c2nc(-c3cccc(F)c3)c(C)c(=O)n2c1 (single isomer, unassigned) [Compound 1374]
16 | – | – | A (A denotes >20-fold) | 100 to 500 | Cc1cc([C@@H](C)Nc2ccccc2C(=O)O)c2nc(N3CCCCC3)cc(=O)n2c1 [Compound 7]
17 | – | – | C (C denotes ≤5-fold) | > 2000 | Cc1cc([C@H](C)Nc2ccccc2C(=O)O)c2nc(N3CCCCC3)cc(=O)n2c1 [Compound 8]
18 | – | – | C (C denotes ≤5-fold) | > 2000 | Cc1cc([C@H](C)Nc2ccccc2C(=O)O)c2nc(N3CCS(=O)(=O)CC3)cc(=O)n2c1 [Compound 139]
19 | – | – | A (A denotes >20-fold) | 100 to 500 | Cc1cc(C(C)Nc2ccccc2C(=O)O)c2nc(N3CCSCC3)cc(=O)n2c1 (centres unmarked) [Compound 140]
20 | – | – | C (C denotes ≤5-fold) | > 2000 | Cc1cc(C(C)Nc2ccccc2C(=O)O)c2nc(-c3ccc[nH]c3=O)cc(=O)n2c1 (centres unmarked) [Compound 144]
21 | – | – | B (B denotes 20-fold≥value>5-fold) | 500 to 2000 | Cc1cc(C(C)Nc2ccccc2C(=O)O)c2nc(-c3cnc(N)nc3)cc(=O)n2c1 (centres unmarked) [Compound 145]

More lines, now with the values behind:

Row | Compound | IC50 (EGF stimulation) [nM] | T47D pAKT S473 HTRF IC50 (H1047R): T47D (H1047R) selectivity over SKBR3 (WT) [1] | T47D pAKT S473 HTRF IC50 (H1047R): T47D (H1047R) selectivity over SKBR3 (WT) [2] | IC50 [3] [nM]
22 | Cc1cc([C@@H](C)Nc2ccccc2C(=O)O)c2nc(-c3cnc(C)c(Cl)c3)c(C)c(=O)n2c1 (single isomer, unassigned) [Compound 951] | < 100 | A (A denotes >20-fold) | – | –
23 | Cc1cc([C@@H](C)Nc2ccccc2C(=O)O)c2nc(-c3ccc(Cl)cc3F)c(C)c(=O)n2c1 (single isomer, unassigned) [Compound 965] | < 100 | A (A denotes >20-fold) | – | –
24 | Cc1cc([C@H](C)Nc2ccccc2C(=O)O)c2nc(-c3cnc(C#N)c(Cl)c3)c(C)c(=O)n2c1 (single isomer, unassigned) [Compound 978] | < 100 | A (A denotes >20-fold) | – | –
25 | Cc1cc([C@H](C)Oc2ccccc2C2(O)CS(=O)(=O)C2)c2nc(-c3cccc(F)c3)c(C)c(=O)n2c1 (single isomer, unassigned) [Compound 1393] | < 100 | – | A (A denotes >20-fold) | –
26 | CC1=CN2C(=O)CC(N3CCOCC3)N=C2C(C(C)Nc2ccccc2)=C1 (centres unmarked) [Compound 47] | – | – | C (C denotes ≤5-fold) | > 2000
27 | CCC(Nc1ccccc1C(=O)O)c1cc(C)cn2c(=O)cc(N3CCOCC3)nc12 (centres unmarked) [Compound 132] | – | – | C (C denotes ≤5-fold) | 500 to 2000
28 | Cc1cc(C(C)Nc2ccccc2S(C)(=O)=O)c2nc(N3CCOCC3)cc(=O)n2c1 (centres unmarked) [Compound 134] | – | – | B (B denotes 20-fold≥value>5-fold) | –
29 | Cc1cc(C(C)Nc2ccccc2C(=O)O)c2nc(N3CCS(=O)(=O)CC3)cc(=O)n2c1 (centres unmarked) [Compound 137] | – | – | C (C denotes ≤5-fold) | > 2000
30 | Cc1cc([C@@H](C)Nc2ccccc2C(=O)O)c2nc(N3CCS(=O)(=O)CC3)cc(=O)n2c1 [Compound 138] | – | – | C (C denotes ≤5-fold) | > 2000
31 | Cc1cc([C@@H](C)Nc2ccccc2C(N)=O)c2nc(N3CCOCC3)cc(=O)n2c1 [Compound 146] | – | – | C (C denotes ≤5-fold) | > 2000
32 | Cc1cc([C@H](C)Nc2ccccc2C(N)=O)c2nc(N3CCOCC3)cc(=O)n2c1 [Compound 147] | – | – | B (B denotes 20-fold≥value>5-fold) | 500 to 2000
33 | CCc1cc([C@@H](C)Nc2ccccc2C(=O)O)c2nc(N3CCOCC3)cc(=O)n2c1 [Compound 149] | – | – | C (C denotes ≤5-fold) | > 2000
34 | Cc1cc(C(C)Nc2ccccc2S(N)(=O)=O)c2nc(N3CCOCC3)cc(=O)n2c1 (centres unmarked) [Compound 151] | – | – | C (C denotes ≤5-fold) | –
35 | Cc1cc([C@H](C)Nc2ccccc2S(N)(=O)=O)c2nc(N3CCOCC3)cc(=O)n2c1 [Compound 152] | – | – | B (B denotes 20-fold≥value>5-fold) | 500 to 2000
36 | Cc1cc(C(C)Nc2ccccc2C)c2nc(N3CCOCC3)cc(=O)n2c1 (centres unmarked) [Compound 154] | – | – | C (C denotes ≤5-fold) | > 2000
37 | Cc1cc([C@@H](C)Nc2ccccc2C(=O)NS(C)(=O)=O)c2nc(N3CCOCC3)cc(=O)n2c1 [Compound 155] | – | – | C (C denotes ≤5-fold) | > 2000
38 | Cc1cc([C@@H](C)Nc2ccccc2CC(=O)O)c2nc(N3CCOCC3)cc(=O)n2c1 [Compound 157] | – | – | C (C denotes ≤5-fold) | > 2000

Reference: US20260132129A1 (Genesis Therapeutics, Inc., priority 2022, published 2026)
